{"source": "patent US7582786B2", "about": "“Synthetic catalytic free radical scavengers useful as antioxidants for prevention and therapy of disease” (Eukarion Inc., priority 1996, dated 2009)", "key": {"[1]": {"assay": "SOD activity, inhibition of cytochrome C reduction by xanthine plus xanthine oxidase (Example 1)", "type": "biochemical", "protocol": "The SOD activity of the compounds was determined by evaluating the inhibition of the reduction of cytochrome C produced by the oxygen free radical generating system, xanthine plus xanthine oxidase. Cytochrome C reduction is monitored spectrophotometrically at 550 nm according to the method described in Darr et al. (1987) Arch. Biochem. Biophys. 258: 351, incorporated herein by reference. The concentration of xanthine oxidase is adjusted such that it produces a rate of reduction of cytochrome C at 550 nm of 0.025 absorbance unit per minute. Under these conditions, the amount of SOD activity required to inhibit the rate of cytochrome C reduction by 50 percent (i.e., to a rate of 0.0125 absorbance unit per minute) is defined as one unit of activity. Salen-metal complexes are identified as antioxidants if they have at least 0.1 unit of activity at a concentration of 1 mM under these standard assay conditions."}, "[2]": {"tested_on": "isolated iron-overloaded rat hearts", "assay": "Isolated iron-overloaded rat hearts submitted to ischemia and reperfusion (function and electron microscopy)", "protocol": "Rats received an intramuscular injection of 0.25 ml of an iron-dextran solution (100 g iron hydroxide, 99 g dextran, water up to 1 l) every third day during a 5-week period to achieve a significant iron overload in cardiac tissue. At the end of this treatment, rats were anesthetized with sodium pentobarbital (40 mg/kg) and heparin (1,000 IU/kg) was administered via a femoral vein. Hearts were then removed and rapidly perfused through the aorta according to the technique described by Langendorff [Langendorff, O., Pflügers Arch. 61: 291, 1895] at a constant flow rate of 11 ml/minute. The perfusion fluid was a modified Krebs-Henseleit buffer containing (in mmol/l): NaCl 118, KCl 5.9, NaHCO3 25, MgCl2 1.2, NaH2PO4 0.6, CaCl2 2.4, Glucose […]. pH was maintained at 7.4±0.05 when the perfusion medium was saturated with O2—CO2 (95%-5%) at 37° C. The perfusion apparatus was fully thermostated such that the temperature of the perfusion medium was 37.0±0.5° C. when it reached the aorta. An ultra-thin balloon was inserted in the left ventricle immediately after the initiation of aortic perfusion and was inflated so as to obtain an end-diastolic pressure of 5 mm Hg. A 15 minute stabilization period was initiated immediately following balloon placement. At the end of this period, systolic and diastolic ventricular pressures and heart beat rate (HR) were recorded through a pressure transducer linked to the ventricular balloon. Left Ventricular Developed Pressure (LVDP) was calculated by the difference between systolic and diastolic pressure and the product HR×LVDP was taken as an index of oxygen consumption. Hearts were then subjected to a 15 minute total global normothermic ischemia, followed by 15 minutes of reperfusion with the perfusion medium used initially. During this 15 minute reperfusion, heart rate, and diastolic and systolic pressures were monitored. Early ventricular fibrillations were analyzed 1 min. after the start of the reperfusion.\nThree experimental groups were studied.\nAfter the 15 minute reperfusion, 3 hearts in each group were prepared for electron microscopy by perfusion with 2.5% glutaraldehyde. Ultra-thin slices (500-600 Å thickness) were examined.\nMitochondria were classified into Type A (normal), Type B (swollen, unbroken), and Type C (ruptured membranes). Sarcomeres were classified into Type A (normal) and Type B (contacted and/or necrosis). The results are expressed as percentages."}, "[3]": {"assay": "C7 inactivation in H2O2, HPLC", "type": "physicochemical", "conditions": "100 μM C7, 1 mM H2O2, with 1 mM ABTS", "protocol": "Where indicated, 1 mM ABTS was also present. Components were mixed and, after various incubations times, a 30 μl aliquot was injected onto the HPLC. The mixtures were chromatographed on an octadecyl-silica column using a mobile phase consisting of 60% methanol:40% 0.1 M Nacl and a flow rate of 1 ml/min. […] A third component, with a retention time of 4.8 min, was detectable under some conditions; its appearance and disappearance was monitored but it was not further analyzed. In this system, ABTS and its oxidized product had retention times of 3.4 and 3.1-min, respectively, well resolved from the peaks of interest. Absorbance spectra collected during each run allowed the identity of C7 and salicylaldehyde to be verified. All peaks were integrated based upon their absorbance at 240 nm. The results are expressed as the percentage of maximum peak area. […] For the two putative breakdown products, this is equivalent to the largest peak observed during the course of the ˜2000 sec incubation period."}, "MRL/lpr mice": {"tested_on": "MRL/lpr mice", "assay": "Lifespan of autoimmune MRL/lpr mice", "type": "in vivo", "conditions": "1 mg/mouse intraperitoneally three times per week", "text": "MRL/lpr mice develop autoantibodies and numerous autoimmune associated pathologies and die prematurely (mean lifespan ˜150 days). They are considered a mouse model for autoimmune disorders such as lupus. […] Control mice received vehicle injections only or were left untreated.\nMRL/lpr mice develop autoantibodies and numerous autoimmune associated pathologies and die prematurely (mean lifespan˜150 days). They are considered a mouse model for autoimmune disorders such as lupus. […] Control mice received vehicle injections only or were left untreated."}, "mice": {"tested_on": "mice", "assay": "Mouse skin transplantation model", "type": "in vivo", "conditions": "50 mg/kg single intraperitoneal injection at grafting", "protocol": "In this model, donor and recipient mice were immunologically mismatched (ClassI/Class II MHC mismatched). A piece of skin (˜1 cm^2) from the tail of a donor mouse was transplanted onto the back of a recipient mouse. The graft was bandaged and observed daily for rejection, as indicated by loss of vascularization and necrosis. Recipient mice received vehicle (Control) or 50 mg/kg C40 as a single intraperitoneal injection at the time of grafting."}, "Rats": {"tested_on": "Rats", "assay": "Ischemia-reperfusion induced kidney damage in the rat", "type": "in vivo", "conditions": "0.2 mg/kg single intravenous bolus at beginning of reperfusion", "protocol": "Rats (“Untreated” and “C40” groups) were unilaterally nephrectomized. The remaining renal artery was clamped for 75 min then reperfused. Kidney function was assessed by determining creatinine levels in the blood. Where indicated, rats received C40 as a single intravenous bolus injection (0.2 mg/kg) at the beginning of the reperfusion period. Bilaterally nephrectomized rats, showing maximal creatinine levels in the absence of kidney function, died on day 2."}, "[4]": {"conditions": "1 minute after reperfusion, DMTU 10 mM, C7 50 μM"}, "[5]": {"conditions": "15 minutes after reperfusion, DMTU 10 mM, C7 50 μM"}, "[6]": {"conditions": "Before ischemia, DMTU 10 mM, C7 50 μM"}, "[7]": {"conditions": "electron microscopy after 15 minute reperfusion"}}, "data": [{"compound": "[Cl][Mn]1[O]c2ccccc2C=NCCN=Cc2ccccc2[O]1", "note": "[Compound C7]", "values": [{"measurement": "SOD Activity", "setting": "[1]; Example 1, cytochrome C reduction", "value": 575, "unit": "units/mM"}, {"measurement": "SOD Activity", "setting": "[1]; previously found", "value": "about 769 units/mM"}, {"measurement": "DP", "setting": "[2]; [4]", "value": "5.8 ± 0.5#± mm Hg"}, {"measurement": "HR", "setting": "[2]; [4]", "value": "130 ± 13", "unit": "beats/min"}, {"measurement": "HR × LVDP", "setting": "[2]; [4]", "value": "9.9 ± 0.8#± ×10.3"}, {"measurement": "SP", "setting": "[2]; [4]", "value": "72 ± 8", "unit": "mm Hg"}, {"measurement": "VF, number of hearts exhibiting episodes of ventricular fibrillation", "setting": "[2]; [4]", "value": "2/8"}, {"measurement": "DP", "setting": "[2]; [5]", "value": "8.3 ± 0.6", "unit": "mm Hg"}, {"measurement": "HR", "setting": "[2]; [5]", "value": "241 ± 15", "unit": "beats/min"}, {"measurement": "SP", "setting": "[2]; [5]", "value": "92 ± 15", "unit": "mm Hg"}, {"measurement": "DP", "setting": "[2]; [6]", "value": "5.4 ± 0.3", "unit": "mm Hg"}, {"measurement": "HR", "setting": "[2]; [6]", "value": "278 ± 7", "unit": "beats/min"}, {"measurement": "HR × LVDP", "setting": "[2]; [6]", "value": "23.5 ± 0.9", "unit": "×10.3"}, {"measurement": "SP", "setting": "[2]; [6]", "value": "90 ± 2", "unit": "mm Hg"}, {"measurement": "protection of hearts from ischemia/reoxygenation damage", "setting": "[2]; C7 50 μM", "value": "effectively protected hearts"}, {"measurement": "Mitochondria Type A (normal)", "setting": "[2]; [7]", "value": "31.0#± %"}, {"measurement": "Mitochondria Type C (ruptured membranes)", "setting": "[2]; [7]", "value": "53.8#± %"}, {"measurement": "Sarcomeres Type A (normal)", "setting": "[2]; [7]", "value": "60.6#± %"}, {"measurement": "Sarcomeres Type B (contacted and/or necrosis)", "setting": "[2]; [7]", "value": "39.4#± %"}, {"measurement": "C7 peak disappeared rapidly", "setting": "[3]", "value": "about 20%"}, {"measurement": "C7 persisting for the ~2000 sec incubation", "setting": "[3]", "value": 80, "unit": "%"}, {"measurement": "lifespan", "setting": "MRL/lpr mice", "value": "prolongs the life"}]}, {"compound": "COc1cccc2c1[O][Mn]([Cl])[O]c1c(cccc1OC)C=NCCN=C2", "note": "[Compound C40]", "values": [{"measurement": "graft rejection", "setting": "mice", "value": "delays rejection"}, {"measurement": "kidney damage, creatinine levels in the blood", "setting": "Rats", "value": "protects against ischemia-reperfusion induced kidney damage"}]}]}
